Where two headings read alike, the source gives them in different places. Values belong to the compound of their own block, whether it stands above or below them.
Legend:
[1] = DPPH radical scavenging (antioxidant) assay; settings: compounds from red maple stems
Description: The DPPH radical scavenging activity of ascorbic acid (vitamin C) and the synthetic commercial antioxidant, butylated hydroxytoluene (BHT), are also assayed as positive controls.
The DPPH radical scavenging activity of ascorbic acid (vitamin C) and the synthetic commercial antioxidant, butylated hydroxytoluene (BHT), are also assayed as positive controls. […] Absorbance is read after 30 min at 515 nm, and the scavenging capacity (SC) is calculated as SC %=(A0−A1/A0)×100, where A0 is the absorbance of the reagent blank and A1 is the absorbance of test samples. All tests are performed in triplicate.

HCT-116 cells = test: MTS antiproliferative assay, HCT-116; format: cell-based; settings: Homo sapiens
Description: (§1) The extracts are solubilized in DMSO and normalized based on their phenolic content to evaluate their antiproliferative activities against the colon cell lines. […] Caco-2 cells are grown in EMEM medium supplemented with 10% v/v fetal bovine serum, 1% v/v nonessential amino acids, 1% v/v L-glutamine and 1% v/v antibiotic solution (Sigma). HT-29 and HCT-116 cells are grown in McCoy's 5a medium supplemented with 10% v/v fetal bovine serum, 1% v/v nonessential amino acids, 2% v/v HEPES and 1% v/v antibiotic solution. CCD-18Co cells are grown in EMEM medium supplemented with 10% v/v fetal bovine serum, 1% v/v nonessential amino acids, 1% v/v L-glutamine and 1% v/v antibiotic solution and are used from PDL between 26 to 35 for all experiments. […] The pH of the culture medium is determined using pH indicator paper (pHydrion™ Brilliant, pH 5.5-9.0, Micro Essential Laboratory, NY, USA) inside the incubator. Cells are counted using a hemacytometer and are plated at 3,000-5,000 cells per well, in a 96-well format for 24 or 48 h prior to sample treatment depending on the cell line. […] Control cells are also run in parallel and subjected to the same changes in medium with 0.5% DMSO.
(§2) At the end of 48 or 72 h of treatment with serially diluted test samples, 20 μl of the MTS reagent, in combination with the electron coupling agent, phenazine methosulfate, is added to the wells and cells are incubated at 37° C. in a humidified incubator for 3 h. Absorbance at 490 nm (OD490) is monitored with a spectrophotometer (SpectraMax M2, Molecular Devices Corp., operated by SoftmaxPro v.4.6 software, Sunnyvale, Calif., USA), to obtain the number of cells relative to control populations. 20 μl of etoposide 4 mg/ml (Sigma) is assayed as a negative control of proliferation. […] Data are presented as the mean±S.D. of three separated experiments on each cell line.

Caco-2 cells = test: MTS antiproliferative assay, Caco-2; format: cell-based; settings: Homo sapiens
Description: The extracts are solubilized in DMSO and normalized based on their phenolic content to evaluate their antiproliferative activities against the colon cell lines. […] CCD-18Co cells are grown in EMEM medium supplemented with 10% v/v fetal bovine serum, 1% v/v nonessential amino acids, 1% v/v L-glutamine and 1% v/v antibiotic solution and are used from PDL between 26 to 35 for all experiments. […] The pH of the culture medium is determined using pH indicator paper (pHydrion™ Brilliant, pH 5.5-9.0, Micro Essential Laboratory, NY, USA) inside the incubator. […] Control cells are also run in parallel and subjected to the same changes in medium with 0.5% DMSO. […] At the end of 48 or 72 h of treatment with serially diluted test samples, 20 μl of the MTS reagent, in combination with the electron coupling agent, phenazine methosulfate, is added to the wells and cells are incubated at 37° C. in a humidified incubator for 3 h. […] Data are presented as the mean±S.D. of three separated experiments on each cell line.

CCD-18Co cells = test: MTS antiproliferative assay, normal colon CCD-18Co; format: cell-based; settings: Homo sapiens
Description: as §1, §2

HT-29 cells = test: MTS antiproliferative assay, HT-29; format: cell-based; settings: Homo sapiens
Description: as §1, §2

α-glucosidase = α-glucosidase (Saccharomyces cerevisiae, UniProt P53341); test: α-Glucosidase inhibition, red maple stem compounds (Example 4); format: biochemical; settings: for α-glucosidase inhibitory activity (in words): by number of galloyl groups
Chain of α-glucosidase (P53341 whole entry): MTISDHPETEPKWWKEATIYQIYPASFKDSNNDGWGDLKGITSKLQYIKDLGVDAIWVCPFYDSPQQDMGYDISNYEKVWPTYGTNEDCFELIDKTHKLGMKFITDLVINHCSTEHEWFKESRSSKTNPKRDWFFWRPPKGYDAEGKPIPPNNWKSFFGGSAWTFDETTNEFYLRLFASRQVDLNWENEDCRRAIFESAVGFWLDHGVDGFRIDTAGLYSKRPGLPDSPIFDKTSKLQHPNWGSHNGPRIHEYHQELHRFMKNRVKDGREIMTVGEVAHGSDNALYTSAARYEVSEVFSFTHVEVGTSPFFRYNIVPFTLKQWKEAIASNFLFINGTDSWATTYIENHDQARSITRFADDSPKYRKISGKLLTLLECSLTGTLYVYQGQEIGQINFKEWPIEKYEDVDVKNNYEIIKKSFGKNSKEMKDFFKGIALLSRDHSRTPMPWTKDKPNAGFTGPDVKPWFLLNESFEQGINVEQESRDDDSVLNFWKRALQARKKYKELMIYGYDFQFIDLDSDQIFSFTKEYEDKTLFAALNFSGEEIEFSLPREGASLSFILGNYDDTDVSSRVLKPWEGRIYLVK

[2] = HCT-116, read-out: IC50 HCT-116 48 h, ginnalins, 48 h treatment
[3] = HCT-116, ginnalins, 72 h treatment, read-out: IC50 HCT-116 72 h
[4] = Caco-2, read-out: IC50 Caco-2 48 h, ginnalins, 48 h treatment
[5] = Caco-2, ginnalins, 72 h treatment, read-out: IC50 Caco-2 72 h
[6] = ginnalins, 72 h treatment, normal colon cells, read-out: IC50 CCD-18Co 72 h
[7] = HT-29, read-out: IC50 HT-29 48 h, ginnalins, 48 h treatment
[8] = HT-29, ginnalins, 72 h treatment, read-out: IC50 HT-29 72 h

SMILES: Cc1cc(C(C)(C)C)c(O)c(C(C)(C)C)c1 [BHT, butylated hydroxytoluene, reference compound]
- IC50 [1]: 1634 ± 16.1 µM

SMILES: COc1cc([C@@H]2c3cc4c(cc3[C@@H](O[C@@H]3O[C@@H]5CO[C@@H](C)O[C@H]5[C@H](O)[C@H]3O)[C@H]3COC(=O)[C@H]23)OCO4)cc(OC)c1O [Etoposide, reference compound]
- IC50 (HCT-116 cells; HCT-116, MTS assay control, read-out: IC50 HCT116 (control of proliferation)): 10 to 20 µM
- IC50 (Caco-2 cells; Caco-2, MTS assay control, read-out: IC50 Caco-2 (control of proliferation)): 10 to 20 µM
- IC50 (CCD-18Co cells; MTS assay control, read-out: IC50 CCD-18Co (control of proliferation)): 30 to 40 µM
- IC50 (HT-29 cells; HT-29, MTS assay control, read-out: IC50 HT29 (control of proliferation)): 10 to 20 µM

SMILES: O=C(O[C@H]1[C@H](O)[C@@H](CO)OC[C@@H]1O)c1cc(O)c(O)c(O)c1 [RMS 4, 3-O-galloyl-1,5-anhydro-D-glucitol]
- α-glucosidase inhibitory activity (in words) (α-glucosidase): do not show any activity
- IC50 [1]: 48 ± 1.11 µM

SMILES: O=C(O[C@H]1[C@H](O)[C@@H](O)CO[C@@H]1CO)c1cc(O)c(O)c(O)c1 [RMS 5, 4-O-galloyl-1,5-anhydro-D-glucitol]
- α-glucosidase inhibitory activity (in words) (α-glucosidase): do not show any activity
- IC50 [1]: 45.6 ± 1.45 µM

SMILES: O=C(O[C@H]1[C@H](O)[C@@H](OC(=O)c2cc(O)c(O)c(O)c2)CO[C@@H]1CO)c1cc(O)c(O)c(O)c1 [RMS 7, 2,4-di-O-galloyl-1,5-anhydro-D-glucitol]
- inhibitors of α-glucosidase enzyme, concentration dependence (α-glucosidase): inhibitors of α-glucosidase enzyme in a concentration-dependent manner
- α-glucosidase inhibitory activity (in words) (α-glucosidase): moderate α-glucosidase inhibitory activity
- IC50 [1]: 18.6 ± 0.77 µM

SMILES: O=C(O[C@H]1[C@H](O)[C@@H](CO)OC[C@@H]1OC(=O)c1cc(O)c(O)c(O)c1)c1cc(O)c(O)c(O)c1 [RMS 9, 2,3-di-O-galloyl-1,5-anhydro-D-glucitol]
- inhibitors of α-glucosidase enzyme, concentration dependence (α-glucosidase): inhibitors of α-glucosidase enzyme in a concentration-dependent manner
- α-glucosidase inhibitory activity (in words) (α-glucosidase): moderate α-glucosidase inhibitory activity
- IC50 [1]: 18.8 ± 0.77 µM

SMILES: O=C(OC[C@H]1OC[C@H](O)[C@@H](O)[C@@H]1O)c1cc(O)c(O)c(O)c1 [RMS 12, 6-O-galloyl-1,5-anhydro-D-glucitol]
- IC50 (HCT-116 cells; [2]): 25.1 ± 1.8 µg/mL
- IC50 (HCT-116 cells; [3]): 20 ± 2 µg/mL
- α-glucosidase inhibitory activity (in words) (α-glucosidase): do not show any activity
- IC50 [1]: 32.7 ± 0.48 µM
- IC50 (Caco-2 cells; [4]): 31.1 ± 1.9 µg/mL
- IC50 (Caco-2 cells; [5]): 22.6 ± 1.9 µg/mL
- IC50 (CCD-18Co cells; [6]): 47.1 ± 5.3 µg/mL
- IC50 (HT-29 cells; [7]): 36.2 ± 1.5 µg/mL
- IC50 (HT-29 cells; [8]): 27.3 ± 0.6 µg/mL

SMILES: O=C(O)c1cc(O)c(O)c(O)c1 [RMS 14, gallic acid]
- IC50 [1]: 20.4 ± 0.34 µM

SMILES: COC(=O)c1cc(OC)c(O)c(OC)c1 [RMS 15, Methyl 3,5-dimethoxy-4-hydroxybenzoate]
- IC50 [1]: 991 ± 80.6 µM

SMILES: COC(=O)c1cc(O)c(O)c(O)c1 [RMS 17, Methyl gallate]
- inhibitors of α-glucosidase enzyme, concentration dependence (α-glucosidase): inhibitors of α-glucosidase enzyme in a concentration-dependent manner
- IC50 [1]: 16.5 ± 0.26 µM

Further lines, with some results ahead:

- IC50 [1]: 18.5 ± 0.44 µM
SMILES: O=C(OC[C@H]1OC[C@H](O)[C@@H](OC(=O)c2cc(O)c(O)c(O)c2)[C@@H]1O)c1cc(O)c(O)c(O)c1 [RMS 18, 3,6-di-O-galloyl-1,5-anhydro-D-glucitol]
- inhibitors of α-glucosidase enzyme, concentration dependence (α-glucosidase): inhibitors of α-glucosidase enzyme in a concentration-dependent manner
- α-glucosidase inhibitory activity (in words) (α-glucosidase): moderate α-glucosidase inhibitory activity

- IC50 [1]: 13.1 µM
SMILES: O=C(OC[C@H]1OC[C@H](OC(=O)c2cc(O)c(O)c(O)c2)[C@@H](O)[C@@H]1OC(=O)c1cc(O)c(O)c(O)c1)c1cc(O)c(O)c(O)c1 [RMS 24, 2,4,6-tri-O-galloyl-1,5-anhydro-D-glucitol]
- inhibitors of α-glucosidase enzyme, concentration dependence (α-glucosidase): inhibitors of α-glucosidase enzyme in a concentration-dependent manner
- α-glucosidase inhibitory activity (in words) (α-glucosidase): powerful α-glucosidase inhibitory activity

- IC50 (HCT-116 cells; [2]): 21.5 ± 1.6 µg/mL
- IC50 (HCT-116 cells; [3]): 16.3 ± 2.1 µg/mL
- IC50 [1]: 17.7 ± 0.21 µM
- IC50 (Caco-2 cells; [4]): 28.8 ± 1.8 µg/mL
- IC50 (Caco-2 cells; [5]): 21.7 ± 1 µg/mL
- IC50 (HT-29 cells; [7]): 31 ± 2.6 µg/mL
- IC50 (HT-29 cells; [8]): 24.1 ± 1.3 µg/mL
SMILES: O=C(OC[C@H]1OC[C@H](OC(=O)c2cc(O)c(O)c(O)c2)[C@@H](O)[C@@H]1O)c1cc(O)c(O)c(O)c1 [RMS 26, 2,6-di-O-galloyl-1,5-anhydro-D-glucitol]
- inhibitors of α-glucosidase enzyme, concentration dependence (α-glucosidase): inhibitors of α-glucosidase enzyme in a concentration-dependent manner
- α-glucosidase inhibitory activity (in words) (α-glucosidase): moderate α-glucosidase inhibitory activity
- IC50 (CCD-18Co cells; [6]): 46.6 ± 3.6 µg/mL

- IC50 (HCT-116 cells; [2]): 27 ± 1.9 µg/mL
- IC50 (HCT-116 cells; [3]): 22.3 ± 2.4 µg/mL
- α-glucosidase inhibitory activity (in words) (α-glucosidase): do not show any activity
- IC50 [1]: 30.5 ± 0.8 µM
- IC50 (Caco-2 cells; [4]): 35 ± 1.4 µg/mL
- IC50 (Caco-2 cells; [5]): 29.8 ± 1.2 µg/mL
- IC50 (HT-29 cells; [7]): 33.8 ± 2 µg/mL
- IC50 (HT-29 cells; [8]): 30.1 ± 1.3 µg/mL
SMILES: O=C(O[C@H]1CO[C@H](CO)[C@@H](O)[C@@H]1O)c1cc(O)c(O)c(O)c1 [RMS 27, 2-O-galloyl-1,5-anhydro-D-glucitol]

- IC50 [1]: 116 ± 4.98 µM
SMILES: COC(=O)c1cc(O)c(O)c(OC)c1 [RMS 28, 3,4-dihydroxy-5-methoxybenzoic acid methyl ester]

- IC50 [1]: 71 ± 1.61 µM
SMILES: O=C1O[C@H]([C@@H](O)CO)C(O)=C1O [Vitamin C, ascorbic acid, reference compound]

From patent US20130310332A1, “MAPLE TREE-DERIVED PRODUCTS AND USES THEREOF” (UNIVERSITY OF RHODE ISLAND, priority 2010, published 2013)
